Reference: ChEMBL document CHEMBL5543112, “Discovery of CBPD-268 as an Exceptionally Potent and Orally Efficacious CBP/p300 PROTAC Degrader Capable of Achieving Tumor Regression” (J Med Chem, 2024)

Legend:
[1] = Drug concentration in rat plasma at 3 mg/kg, po measured at 1 hr by LC-MS/MS analysis; format: ADME, organism-based
[2] = Drug concentration in rat plasma at 3 mg/kg, po measured at 2 hrs by LC-MS/MS analysis; format: ADME, organism-based
[3] = Drug concentration in rat plasma at 3 mg/kg, po measured at 15 mins by LC-MS/MS analysis; format: ADME, organism-based
[4] = target: Protein cereblon/Histone acetyltransferase p300 (Homo sapiens, UniProt Q09472+Q96SW2); test: PROTAC activity at p300/CRBN in human U2OS cells assessed as induction of p300 degradation incubated for 24 hrs by Nan-glo HiBiT lytic assay; format: cell-based
[5] = AUC (0 to t) in Sprague-Dawley rat at 1 mg/kg, iv measured upto 24 hrs by LC-MS/MS analysis; format: ADME, organism-based; conditions: in vivo
[6] = Drug concentration in rat plasma at 3 mg/kg, po measured at 30 mins by LC-MS/MS analysis; format: ADME, organism-based
[7] = Drug concentration in rat plasma at 3 mg/kg, po measured at 6 hrs by LC-MS/MS analysis; format: ADME, organism-based
[8] = Metabolic stability in rat liver microsome assessed as half life measured upto 60 mins in presence of NADPH by LC-MS/MS analysis; format: ADME; conditions: liver microsomes
[9] = Half life in Sprague-Dawley rat at 1 mg/kg, iv measured upto 24 hrs by LC-MS/MS analysis; format: ADME, organism-based; conditions: in vivo
[10] = Drug concentration in rat plasma at 3 mg/kg, po measured at 5 mins by LC-MS/MS analysis; format: ADME, organism-based
[11] = Metabolic stability in mouse liver microsome assessed as half life measured upto 60 mins in presence of NADPH by LC-MS/MS analysis; format: ADME; conditions: liver microsomes
[12] = Drug concentration in rat plasma at 3 mg/kg, po measured at 4 hrs by LC-MS/MS analysis; format: ADME, organism-based
[13] = Metabolic stability in human liver microsome assessed as half life measured upto 60 mins in presence of NADPH by LC-MS/MS analysis; format: ADME; conditions: liver microsomes
[14] = Volume of distribution at steady state in Sprague-Dawley rat at 1 mg/kg, iv measured upto 24 hrs by LC-MS/MS analysis; format: ADME, organism-based; conditions: in vivo
[15] = target: Protein cereblon/CREB-binding protein (Homo sapiens, UniProt Q92793+Q96SW2); test: PROTAC activity at CBP/CRBN in human U2OS cells assessed as induction of CBP degradation incubated for 24 hrs by Nan-glo HiBiT lytic assay; format: cell-based
VCaP = test: Antiproliferative activity against human VCaP cells assessed as cell growth inhibition incubated for 4 days by celtiter-glo luminescent assay; conditions: 96 h
CWR22R = test: Antiproliferative activity against human 22Rv1 cells assessed as cell growth inhibition incubated for 4 days by celtiter-glo luminescent assay; conditions: 22Rv1, 96 h
LNCaP = test: Antiproliferative activity against human LNCaP cells assessed as cell growth inhibition incubated for 4 days by celtiter-glo luminescent assay; conditions: 96 h
[16] = target: Bromodomain-containing protein 4 (Homo sapiens, UniProt O60885); test: Binding affinity to BRD4 (unknown origin) assessed as dissociation constant by ITC analysis
CREB-binding protein = CREB-binding protein (Homo sapiens, UniProt Q92793); test: Binding affinity to CBP (unknown origin) assessed as dissociation constant by ITC analysis
[17] = target: Histone acetyltransferase p300 (Homo sapiens, UniProt Q09472); test: Binding affinity to p300 (unknown origin) assessed as dissociation constant by ITC analysis
[18] = Drug concentration in rat plasma at 3 mg/kg, po measured at 24 hrs by LC-MS/MS analysis; format: ADME, organism-based

Protein cereblon/CREB-binding protein, sequence (Q92793 whole entry): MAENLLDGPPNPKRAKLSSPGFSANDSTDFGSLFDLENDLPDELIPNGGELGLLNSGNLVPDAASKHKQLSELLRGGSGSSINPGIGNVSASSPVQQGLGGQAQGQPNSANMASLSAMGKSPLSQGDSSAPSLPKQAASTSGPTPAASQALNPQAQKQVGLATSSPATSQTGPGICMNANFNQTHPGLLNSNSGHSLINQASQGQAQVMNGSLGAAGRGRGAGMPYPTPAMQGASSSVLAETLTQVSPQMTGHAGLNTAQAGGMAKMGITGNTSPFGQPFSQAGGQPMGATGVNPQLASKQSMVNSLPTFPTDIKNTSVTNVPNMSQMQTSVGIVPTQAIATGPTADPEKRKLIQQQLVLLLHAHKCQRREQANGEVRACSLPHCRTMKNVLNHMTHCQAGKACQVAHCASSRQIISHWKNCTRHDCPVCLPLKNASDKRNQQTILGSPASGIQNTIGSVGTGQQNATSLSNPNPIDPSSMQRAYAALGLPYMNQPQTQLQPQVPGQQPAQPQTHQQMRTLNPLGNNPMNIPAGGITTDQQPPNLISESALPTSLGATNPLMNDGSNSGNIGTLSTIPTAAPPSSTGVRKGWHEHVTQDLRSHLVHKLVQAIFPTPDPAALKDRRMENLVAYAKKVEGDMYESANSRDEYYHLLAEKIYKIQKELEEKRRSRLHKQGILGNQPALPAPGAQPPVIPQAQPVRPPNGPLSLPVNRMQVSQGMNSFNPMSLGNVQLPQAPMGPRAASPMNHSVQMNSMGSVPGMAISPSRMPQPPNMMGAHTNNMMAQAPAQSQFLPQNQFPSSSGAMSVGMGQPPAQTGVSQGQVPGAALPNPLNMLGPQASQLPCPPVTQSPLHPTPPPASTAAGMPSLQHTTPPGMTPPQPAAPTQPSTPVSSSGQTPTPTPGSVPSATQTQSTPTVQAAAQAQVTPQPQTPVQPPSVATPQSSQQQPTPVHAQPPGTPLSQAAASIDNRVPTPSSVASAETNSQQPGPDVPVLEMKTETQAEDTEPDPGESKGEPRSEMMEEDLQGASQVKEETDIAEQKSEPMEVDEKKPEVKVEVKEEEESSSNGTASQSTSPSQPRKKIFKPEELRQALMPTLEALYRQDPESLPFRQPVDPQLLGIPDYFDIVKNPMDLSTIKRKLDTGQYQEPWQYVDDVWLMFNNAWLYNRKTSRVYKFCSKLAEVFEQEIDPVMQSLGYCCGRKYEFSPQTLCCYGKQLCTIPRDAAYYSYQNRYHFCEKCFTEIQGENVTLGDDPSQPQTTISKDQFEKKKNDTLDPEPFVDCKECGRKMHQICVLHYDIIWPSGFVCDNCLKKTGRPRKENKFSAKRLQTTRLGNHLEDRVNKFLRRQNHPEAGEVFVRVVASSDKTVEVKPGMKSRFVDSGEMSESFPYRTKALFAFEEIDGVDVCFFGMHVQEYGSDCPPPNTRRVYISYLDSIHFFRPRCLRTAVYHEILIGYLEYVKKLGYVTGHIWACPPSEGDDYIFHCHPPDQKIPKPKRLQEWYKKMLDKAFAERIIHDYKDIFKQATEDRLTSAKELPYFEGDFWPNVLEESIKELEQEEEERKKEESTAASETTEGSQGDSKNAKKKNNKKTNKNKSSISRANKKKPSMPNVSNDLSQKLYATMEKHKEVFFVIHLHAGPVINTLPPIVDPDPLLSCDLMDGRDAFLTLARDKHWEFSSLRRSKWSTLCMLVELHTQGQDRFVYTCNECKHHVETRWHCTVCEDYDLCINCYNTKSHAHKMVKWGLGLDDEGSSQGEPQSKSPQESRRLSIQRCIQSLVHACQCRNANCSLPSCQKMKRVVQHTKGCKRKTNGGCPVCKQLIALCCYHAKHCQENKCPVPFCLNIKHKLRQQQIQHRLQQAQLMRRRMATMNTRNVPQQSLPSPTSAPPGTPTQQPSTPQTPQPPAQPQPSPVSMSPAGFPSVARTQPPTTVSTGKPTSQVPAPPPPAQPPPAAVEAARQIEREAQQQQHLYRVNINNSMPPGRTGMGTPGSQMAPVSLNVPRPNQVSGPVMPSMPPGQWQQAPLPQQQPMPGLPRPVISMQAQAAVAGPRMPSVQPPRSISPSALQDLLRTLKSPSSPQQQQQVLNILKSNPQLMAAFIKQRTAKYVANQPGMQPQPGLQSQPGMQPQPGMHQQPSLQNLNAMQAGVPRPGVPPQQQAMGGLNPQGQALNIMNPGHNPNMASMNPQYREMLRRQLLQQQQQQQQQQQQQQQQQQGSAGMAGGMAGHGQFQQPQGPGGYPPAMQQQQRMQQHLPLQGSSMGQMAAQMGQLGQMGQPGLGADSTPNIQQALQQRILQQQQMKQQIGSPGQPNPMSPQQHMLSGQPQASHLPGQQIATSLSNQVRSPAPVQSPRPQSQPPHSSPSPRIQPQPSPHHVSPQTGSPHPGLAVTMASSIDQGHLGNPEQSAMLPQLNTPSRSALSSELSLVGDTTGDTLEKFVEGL
Protein cereblon/CREB-binding protein, sequence (Q96SW2 whole entry): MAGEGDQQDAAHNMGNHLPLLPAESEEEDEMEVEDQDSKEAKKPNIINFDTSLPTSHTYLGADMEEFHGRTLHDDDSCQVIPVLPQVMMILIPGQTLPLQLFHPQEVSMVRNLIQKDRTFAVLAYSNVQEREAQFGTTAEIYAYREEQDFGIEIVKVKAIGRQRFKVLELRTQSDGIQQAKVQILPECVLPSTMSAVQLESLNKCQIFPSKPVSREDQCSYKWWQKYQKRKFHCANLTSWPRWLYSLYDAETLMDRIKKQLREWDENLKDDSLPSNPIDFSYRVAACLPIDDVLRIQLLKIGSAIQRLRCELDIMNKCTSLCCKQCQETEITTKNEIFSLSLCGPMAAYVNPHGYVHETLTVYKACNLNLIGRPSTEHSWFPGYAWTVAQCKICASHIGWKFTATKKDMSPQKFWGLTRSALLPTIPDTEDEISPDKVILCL
CREB-binding protein, sequence (Q92793 whole entry): as the sequence (Q92793 whole entry) above

CC(=O)N1CCc2c(c(N3CCCc4ccc(C(F)F)cc43)nn2C2CCN(C(=O)CN3Cc4cc5c(cc4C3)C(=O)N(C3CCC(=O)NC3=O)C5=O)CC2)C1 (configuration not stated)
concentration at 1 h [1]: 0.3 ng/mL
concentration at 2 h [2]: 0.4 ng/mL
concentration at 0.25 h [3]: 0.5 ng/mL
DC50 [4]: 204 nM
AUC(0-t) at 24 h [5]: 88.7 ng·h/mL
concentration at 0.5 h [6]: 0.4 ng/mL
concentration at 6 h [7]: 0.9 ng/mL
half-life [8]: > 1 h
t1/2 [9]: 1.1 h
concentration at 5 min [10]: 1 ng/mL
half-life [11]: > 1 h
concentration at 4 h [12]: 0.7 ng/mL
half-life [13]: > 1 h
Vdss [14]: 1.7 L/kg
DC50 [15]: 519 nM

N#Cc1ccc(O[C@H]2CC[C@H](NC(=O)c3ccc(N4CCC(CN5CCN(c6cc7c(cc6F)C(=O)N(C6CCC(=O)NC6=O)C7=O)CC5)CC4)nn3)CC2)cc1Cl (some centres not stated) [BAVDEGALUTAMIDE]
IC50 (VCaP): 125 nM

CC(=O)N1CCc2c(c(N3CCCc4cc(C5CCCCC5)c(C(F)F)cc43)nn2C2CCN(C(=O)CN3Cc4cc5c(cc4C3)C(=O)N(C3CCC(=O)NC3=O)C5=O)CC2)C1 (configuration not stated)
DC50 [4]: 39 nM
DC50 [15]: 37 nM

CO[C@H]1CC[C@H](n2c([C@@H]3CCCC(=O)N3c3ccc(F)c(F)c3)nc3cc(-c4c(C)noc4C)ccc32)CC1 [INOBRODIB]
IC50 (VCaP): 195 nM

CNC(=O)c1ccc(N2C(=S)N(c3ccc(C#N)c(C(F)(F)F)c3)C(=O)C2(C)C)cc1F [ENZALUTAMIDE]
IC50 (VCaP): > 1000 nM
IC50 (CWR22R): > 1000 nM

CC(=O)N1CCc2c(c(N3CCCc4cc(C(C)C)c(C(F)F)cc43)nn2C2CCN(C(=O)CN3Cc4cc5c(cc4C3)C(=O)N(C3CCC(=O)NC3=O)C5=O)CC2)C1 (configuration not stated)
DC50 [4]: 40 nM
DC50 [15]: 57 nM

CC(=O)N1CCc2c(c(N3CCCc4cc(Br)c(C(F)F)cc43)nn2C2CCN(C(=O)CN3Cc4cc5c(cc4C3)C(=O)N(C3CCC(=O)NC3=O)C5=O)CC2)C1 (configuration not stated)
DC50 [4]: 17 nM
DC50 [15]: 64 nM

CC(=O)N1CCc2c(c(N3CCCc4cc(-c5ccc(F)cc5)c(C(F)F)cc43)nn2C2CCN(C(=O)CN3Cc4cc5c(cc4C3)C(=O)N(C3CCC(=O)NC3=O)C5=O)CC2)C1 (configuration not stated)
DC50 [4]: 41 nM
DC50 [15]: 36 nM

CC(=O)N1CCc2c(c(N3CCCc4cc(-c5cnn(C)c5)c(C(F)F)cc43)nn2C2CCN(C(=O)CCCCCN3Cc4cc5c(cc4C3)C(=O)N(C3CCC(=O)NC3=O)C5=O)CC2)C1 (configuration not stated)
DC50 [4]: 108 nM
DC50 [15]: 362 nM

CC(=O)N1CCc2c(c(N3CCCc4cc(-c5cnn(C)c5)c(C(F)F)cc43)nn2C2CCOCC2)C1
IC50 (LNCaP): > 1000 nM
Kd [16]: 200 nM
IC50 (VCaP): > 1000 nM
Kd (CREB-binding protein): 1.1 nM
Kd [17]: 1.3 nM
IC50 (CWR22R): > 1000 nM

CC(=O)N1CCc2c(c(N3CCCc4cc(C)c(C(F)F)cc43)nn2C2CCN(C(=O)CN3Cc4cc5c(cc4C3)C(=O)N(C3CCC(=O)NC3=O)C5=O)CC2)C1 (configuration not stated)
DC50 [4]: 9.6 nM
DC50 [15]: 55 nM

CC(=O)N1CCc2c(c(N3CCCc4cc(-c5cnn(C)c5)c(C(F)F)cc43)nn2C2CCN(CC(=O)N3Cc4cc5c(cc4C3)C(=O)N(C3CCC(=O)NC3=O)C5=O)CC2)C1 (configuration not stated)
DC50 [4]: > 1000 nM
DC50 [15]: > 1000 nM

CC(=O)N1CCc2c(c(N3CCCc4cc(-c5cnn(C)c5)c(C(F)F)cc43)nn2C2CCN(C(=O)N3Cc4cc5c(cc4C3)C(=O)N(C3CCC(=O)NC3=O)C5=O)CC2)C1 (configuration not stated)
DC50 [4]: > 1000 nM
DC50 [15]: > 1000 nM

CC(=O)N1CCc2c(c(N3CCCc4cc(-c5cnn(C)c5)c(C(F)F)cc43)nn2C2CCN(C(=O)CCCN3Cc4cc5c(cc4C3)C(=O)N(C3CCC(=O)NC3=O)C5=O)CC2)C1 (configuration not stated)
DC50 [4]: 105 nM
DC50 [15]: 368 nM

CC(=O)N1CCc2c(c(N3CCCc4cc(-c5cccs5)c(C(F)F)cc43)nn2C2CCN(C(=O)CN3Cc4cc5c(cc4C3)C(=O)N(C3CCC(=O)NC3=O)C5=O)CC2)C1 (configuration not stated)
DC50 [4]: 33 nM
DC50 [15]: 24 nM

CC(=O)N1CCc2c(c(N3CCCc4cc(-c5cnn(C)c5)c(C(F)F)cc43)nn2C2CCN(C(=O)CCCCN3Cc4cc5c(cc4C3)C(=O)N(C3CCC(=O)NC3=O)C5=O)CC2)C1 (configuration not stated)
DC50 [4]: 46 nM
DC50 [15]: 168 nM

CNC(=O)N1CCc2c(c(N3CCCc4cc(-c5cnn(C)c5)c(C(F)F)cc43)nn2C2CCOCC2)C1
Kd [16]: 4.6 nM
Kd (CREB-binding protein): 0.9 nM
Kd [17]: 1.2 nM

CCc1cc2c(cc1C(F)F)N(c1nn(C3CCN(C(=O)CN4Cc5cc6c(cc5C4)C(=O)N(C4CCC(=O)NC4=O)C6=O)CC3)c3c1CN(C(C)=O)CC3)CCC2 (configuration not stated)
DC50 [4]: 18 nM
DC50 [15]: 89 nM

CC(=O)N1CCc2c(c(N3CCCc4cc(-c5cnn(C)c5)c(C(F)F)cc43)nn2C2CCN(C(=O)CCN3Cc4cc5c(cc4C3)C(=O)N(C3CCC(=O)NC3=O)C5=O)CC2)C1 (configuration not stated)
DC50 [4]: > 1000 nM
DC50 [15]: > 1000 nM

CC(=O)N1CCc2c(c(N3CCCc4cc(-c5ccccc5)c(C(F)F)cc43)nn2C2CCN(C(=O)CN3Cc4cc5c(cc4C3)C(=O)N(C3CCC(=O)NC3=O)C5=O)CC2)C1 (configuration not stated)
DC50 [4]: 23 nM
DC50 [15]: 31 nM

CC(=O)N1CCc2c(c(N3CCCc4cc(C5CC5)c(C(F)F)cc43)nn2C2CCN(C(=O)CN3Cc4cc5c(cc4C3)C(=O)N(C3CCC(=O)NC3=O)C5=O)CC2)C1 (configuration not stated)
DC50 [4]: 29 nM
DC50 [15]: 52 nM

CC(=O)N1CCc2c(c(N3CCCc4cc(-c5cnn(C)c5)c(C(F)F)cc43)nn2C2CCN(C(=O)CN3Cc4cc5c(cc4C3)C(=O)N(C3CCC(=O)NC3=O)C5=O)CC2)C1 (configuration not stated)
concentration at 0.25 h [3]: 1.9 ng/mL
AUC(0-t) at 24 h [5]: 166 ng·h/mL
half-life [8]: > 1 h
t1/2 [9]: 1.3 h
concentration at 5 min [10]: 3.7 ng/mL
half-life [11]: 0.317 h
concentration at 24 h [18]: 4.6 ng/mL
half-life [13]: 0.163 h
Vdss [14]: 6.3 L/kg
